{"source": "patent US20210252023A1", "about": "“METHODS AND COMPOSITIONS FOR TREATING AND/OR PREVENTING THE PROGRESSION AND/OR ONSET OF AGE-RELATED NEURODEGENERATION” (Enterin, Inc., priority 2018, published 2021)", "key": {"[1]": {"test": "Dose response of delay in growth of BDF1 mice (Example 1, FIG. 2)", "format": "in vivo, B6D2F1 (BDF1) mice", "conditions": "5 and 10 mg/kg IV; data not shown", "experimental": "An experiment was conducted to explore the dose response to a delay in growth of B6D2F1 (BDF1) mice to Aminsoterol 1436. 30 day old male BDF1 mice received either vehicle or Aminosterol 1436 intraveneously (IV) at 5 mg/kg or 10 mg/kg (n=15 for each treatment arm) every 3 days until 51 days of age. The Aminosterol 1436 was administered as a aqueous solution in water. BDF1 mice are available from Charles River Laboratories. The animals were fed standard lab chow, offered ad libitum. The animals were weighed and body length measured every 5 days. […] However, while the control animals reached maturity at 120 days, the animals that received 5 mg/kg of Aminosterol 1436 reached maturity at 150 days, corresponding to a 25% delay in reaching maturity, as measured by end weight. […] Most importantly, both treated and untreated animals reached normal adult dimensions, albeit at different rates."}, "[2]": {"test": "Brain distribution of radioactive Aminosterol 1436 after IV or ICV administration (FIG. 1)", "format": "in vivo", "conditions": "radioactive compound, rat, peripheral vein (IV) or 3rd ventricle (ICV)", "source_text": "The exact mechanism by which Aminosterol 1436 achieves its effect on preventing, delaying onset, and/or treating neurodegeneration, delaying maturity, retarding aging, and increasing potential lifespan is not known. However, without being bound by theory, Applicant theorizes that the effect of Aminosterol 1436 is likely in part due to the drug's effects on the hypothalamus within the brain of the animal."}, "[3]": {"test": "Neuroregeneration in treated adult mouse (cell number in brain areas)", "format": "in vivo", "source_text": "The hypothalamus is of particular interest because it happens to be the site of localization of Aminosterol 1436 in the brain."}, "HIV": {"tested_on": "HIV", "conditions": "tissue culture; U.S. Pat. No. 5,763,430; cited from earlier work"}}, "note": "Entries after “also recorded” stand apart in the source; their conditions may differ.", "data": [{"smiles": "CC(C)[C@@H](CC[C@@H](C)[C@H]1CC[C@H]2[C@@H]3[C@H](O)C[C@H]4C[C@@H](NCCCNCCCCNCCCN)CC[C@]4(C)[C@H]3CC[C@]12C)OS(=O)(=O)O", "note": "[Aminosterol 1436, trodusquemine]", "values": [{"measurement": "linear growth", "setting": "[1]", "value": "slowed to a corresponding degree"}, {"measurement": "accumulation in the brain", "setting": "[2]", "value": "accumulation of Aminosterol 1436 within the centers of the brain that control growth, maturation, and senescence; also recorded: accumulates within the centers of the brain that control growth, maturation and senescence"}, {"measurement": "neuroregeneration (number of cells in subependymal zone, olfactory bulb, hypothalamus, thalamus)", "setting": "[3]", "value": "stimulates neuroregeneration"}, {"measurement": "antiviral activity against HIV", "setting": "HIV", "value": "exhibits antiviral activity against HIV in tissue culture"}]}]}
